Earlier results as cited in patent US20200338016A1, “COMBINATION BROAD-SPECTRUM ANTIBIOTIC PREPARATIONS FOR DRUG-RESISTANT PATHOGENS” (priority 2019, published 2020).

Test system: Mycobacterim tuberculosis
Conditions: ten strains of Mycobacterim tuberculosis, including six resistant to antibiotics

SMILES | concentration that kills
O=c1c(O)c(-c2ccc(O)c(O)c2)oc2cc(O)cc(O)c12 [quercetin] | 1024 micrograms per milliliter
O=C(O[C@@H]1Cc2c(O)cc(O)cc2O[C@@H]1c1cc(O)c(O)c(O)c1)c1cc(O)c(O)c(O)c1 [EGCG, epigallocatechin gallate] | 1024 micrograms per milliliter
O=C(O)/C=C/c1ccc(O)c(O)c1 [caffeic acid] | 1024 micrograms per milliliter
